Assay results: US20210369853A1, “TARGETED PROTEASE DEGRADATION PLATFORM” (EUBULUS BIOTHERAPEUTICS INC., priority 2018, published 2021)
Read-outs that look alike come from different tables or passages of the source.

What was measured:
Format in all cases: cell-based
[1] = system: Human cervical adenocarcinoma cells Hela; experiment: Cell proliferation experiment (Alarm blue, 72 h, EC50)
Procedure, shortened: (§1)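 Log-phase cells, passaged at least 2 generations, were seeded in 96-well plates and exposed to test compound in complete medium as a 5-fold dilution series in duplicate for 72 h. Fluorescence was read by Alamar blue and EC50 fitted to a four-parameter curve (Min, Max, Slope).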

[2] = system: Human Monocytic Leukemia MV4-11; experiment: as above
Procedure, shortened: as §1

[3] = system: Human Colon Cancer HCT-116; experiment: as above; conditions: Homo sapiens, HCT-116; HCT116 cells
Procedure, shortened: as §1

BRD4 = molecular target: T1, BRD4 (Homo sapiens, UniProt O60885); experiment: Western blot, protein degradation (DC50)
T1 construct: endogenous in cells
Description: (§2) Cells were treated with the compound for a period of time, after that the cells were collected by centrifugation. After washing with PBS, the cells were lysed by adding RIPA buffer; the cell lysate were added to the loading buffer and then appropriate volume were taken and slowly added to the corresponding wells of the gel plate, and run the SDS-PAGE gel (4%-12%). After running the gel, transferred to the PVDF membrane and sealed with 5% skimmed milk powder at room temperature for 1 hour. The membrane was placed in the primary antibody diluted with 5% skimmed milk powder and shaked slowly overnight at 4° C. After incubation with primary antibody, the membrane was washed 3 times using a TBST shaker; added secondary antibody diluted with 5% skimmed milk powder corresponding to the primary antibody, and shaked slowly at room temperature for 1 hour. After incubation with secondary antibody, the membrane was washed 3 times using the TBST shaker again. The PVDF membrane was flatted in the cassette, the strip was evenly infiltrated with ECL developer solution, and placed in ChemDoc XRS+ gel imager for taking pictures. The intensity of protein bands was analyzed quantitatively using ImageJ software.

PLK1 = molecular target: T2, PLK1 (Homo sapiens, UniProt P53350); experiment: Western blot, protein degradation (DC50)
T2 construct: endogenous in cells
T2 sequence (P53350 whole entry): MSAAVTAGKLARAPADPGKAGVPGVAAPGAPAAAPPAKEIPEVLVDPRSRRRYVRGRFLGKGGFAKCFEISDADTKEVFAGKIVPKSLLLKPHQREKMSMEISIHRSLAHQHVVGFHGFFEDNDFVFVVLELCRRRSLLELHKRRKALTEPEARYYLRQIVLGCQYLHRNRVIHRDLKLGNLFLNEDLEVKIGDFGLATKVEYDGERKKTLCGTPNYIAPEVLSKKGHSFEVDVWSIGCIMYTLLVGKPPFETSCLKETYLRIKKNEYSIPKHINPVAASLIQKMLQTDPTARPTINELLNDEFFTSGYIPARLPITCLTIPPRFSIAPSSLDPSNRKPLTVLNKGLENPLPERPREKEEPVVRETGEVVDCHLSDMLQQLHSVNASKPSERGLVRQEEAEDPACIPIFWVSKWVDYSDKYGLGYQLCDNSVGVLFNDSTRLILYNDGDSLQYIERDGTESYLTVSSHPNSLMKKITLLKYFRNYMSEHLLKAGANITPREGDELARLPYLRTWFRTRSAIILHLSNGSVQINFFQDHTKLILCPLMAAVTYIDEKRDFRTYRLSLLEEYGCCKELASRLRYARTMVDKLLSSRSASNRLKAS
Description: as §2

[4] = Homo sapiens, MV4-11, MV4;11 cells
[5] = 24 h, read-out: BRD4 DC50 (nM) (24 h)
[6] = 24 h, read-out: PLK1 DC50 (nM) (24 h)

Row | EC50 ([1]; Homo sapiens) | EC50 [2, 4] | SMILES | other results
1 | > 1000 nM | 100 to 1000 nM | CC[C@@H]1c2c(C#N)ncn2-c2cnc(Nc3ccc(C(=O)NCCOCCOCCOCCOCCC(=O)N[C@H](C(=O)N4C[C@H](O)C[C@H]4C(=O)NCc4ccc(-c5scnc5C)cc4)C(C)(C)C)cc3OC)nc2N1C1CCCC1 [UB-180552] | –
2 | > 1000 nM | 10 to 100 nM | CC[C@@H]1c2c(C#N)ncn2-c2cnc(Nc3ccc(C(=O)NCCOCC(=O)N[C@H](C(=O)N4C[C@H](O)C[C@H]4C(=O)NCc4ccc(-c5scnc5C)cc4)C(C)(C)C)cc3OC)nc2N1C1CCCC1 [UB-180544] | –
3 | > 1000 nM | 10 to 100 nM | CC[C@@H]1c2nncn2-c2cnc(Nc3ccc(C(=O)NCCCC(=O)N[C@H](C(=O)N4C[C@H](O)C[C@H]4C(=O)NCc4ccc(-c5scnc5C)cc4)C(C)(C)C)cc3OC)nc2N1C1CCCC1 [UB-180539] | –
4 | > 1000 nM | 100 to 1000 nM | CC[C@@H]1c2c(C#N)ncn2-c2cnc(Nc3ccc(C(=O)NCCCC(=O)Nc4cccc5c4CN(C4CCC(=O)NC4=O)C5=O)cc3OC)nc2N1C1CCCC1 (stereo partly shown) [UB-180537] | –
5 | > 1000 nM | > 1000 nM | CC[C@@H]1c2nncn2-c2cnc(Nc3ccc(C(=O)NCCOCCOCCC(=O)Nc4cccc5c4CN(C4CCC(=O)NC4=O)C5=O)cc3OC)nc2N1C1CCCC1 (stereo partly shown) [UB-180547] | –
6 | > 1000 nM | 100 to 1000 nM | CC[C@@H]1c2nncn2-c2cnc(Nc3ccc(C(=O)NCCOCCOCCOCCOCCC(=O)N[C@H](C(=O)N4C[C@H](O)C[C@H]4C(=O)NCc4ccc(-c5scnc5C)cc4)C(C)(C)C)cc3OC)nc2N1C1CCCC1 [UB-180553] | –
7 | > 1000 nM | > 1000 nM | CC[C@@H]1c2nncn2-c2cnc(Nc3ccc(C(=O)NCCOCCOCC(=O)Nc4cccc5c4CN(C4CCC(=O)NC4=O)C5=O)cc3OC)nc2N1C1CCCC1 (stereo partly shown) [UB-180556] | –
8 | – | – | CC[C@@H]1C(=O)N(C)c2cnc(Nc3ccc(C(=O)NCCOCCOCCOCCNCCCC(=O)Nc4cccc5c4CN(C4CCC(=O)NC4=O)C5=O)cc3OC)nc2N1C1CCCC1 (stereo partly shown) [UB-180647] | EC50 [3]: > 1000 nM; EC50 ([2]; MV4;11 cells): 10 to 100 nM; DC50 (BRD4; 24 h, western blot, read-out: BRD4 DC50 (24 h)): < 10 nM; DC50 (PLK1; 24 h, western blot, read-out: PLK1 DC50 (24 h)): 10 to 100 nM
9 | > 1000 nM | > 1000 nM | CC[C@@H]1c2nncn2-c2cnc(Nc3ccc(C(=O)NCCOCCOCCC(=O)N[C@H](C(=O)N4C[C@H](O)C[C@H]4C(=O)NCc4ccc(-c5scnc5C)cc4)C(C)(C)C)cc3OC)nc2N1C1CCCC1 [UB-180550] | –
10 | > 1000 nM | 100 to 1000 nM | CC[C@@H]1c2nncn2-c2cnc(Nc3ccc(C(=O)NCCOCCOCCOCCC(=O)N[C@H](C(=O)N4C[C@H](O)C[C@H]4C(=O)NCc4ccc(-c5scnc5C)cc4)C(C)(C)C)cc3OC)nc2N1C1CCCC1 [UB-180522] | –
11 | > 1000 nM | 100 to 1000 nM | CC[C@@H]1c2nncn2-c2cnc(Nc3ccc(C(=O)NCCOCCOCC(=O)N[C@H](C(=O)N4C[C@H](O)C[C@H]4C(=O)NCc4ccc(-c5scnc5C)cc4)C(C)(C)C)cc3OC)nc2N1C1CCCC1 [UB-180564] | –
12 | > 1000 nM | > 1000 nM | CC[C@@H]1c2nncn2-c2cnc(Nc3ccc(C(=O)NCCCC(=O)Nc4cccc5c4CN(C4CCC(=O)NC4=O)C5=O)cc3OC)nc2N1C1CCCC1 (stereo partly shown) [UB-180521] | –
13 | > 1000 nM | 100 to 1000 nM | CC[C@@H]1c2c(C#N)ncn2-c2cnc(Nc3ccc(C(=O)NCCOCCOCCOCC(=O)Nc4cccc5c4CN(C4CCC(=O)NC4=O)C5=O)cc3OC)nc2N1C1CCCC1 (stereo partly shown) [UB-180545] | –
14 | > 1000 nM | > 1000 nM | CC[C@@H]1c2nncn2-c2cnc(Nc3ccc(C(=O)NCCOCCOCCOCC(=O)N[C@H](C(=O)N4C[C@H](O)C[C@H]4C(=O)NCc4ccc(-c5scnc5C)cc4)C(C)(C)C)cc3OC)nc2N1C1CCCC1 [UB-180516] | –
15 | > 1000 nM | > 1000 nM | CC[C@@H]1c2nncn2-c2cnc(Nc3ccc(C(=O)NCCOCC(=O)N[C@H](C(=O)N4C[C@H](O)C[C@H]4C(=O)NCc4ccc(-c5scnc5C)cc4)C(C)(C)C)cc3OC)nc2N1C1CCCC1 [UB-180540] | –
16 | > 1000 nM | 100 to 1000 nM | CC[C@@H]1c2c(C#N)ncn2-c2cnc(Nc3ccc(C(=O)NCCCCOCC(=O)Nc4cccc5c4CN(C4CCC(=O)NC4=O)C5=O)cc3OC)nc2N1C1CCCC1 (stereo partly shown) [UB-180512] | –
17 | > 1000 nM | > 1000 nM | CC[C@@H]1c2c(C#N)ncn2-c2cnc(Nc3ccc(C(=O)NCCOCCOCCC(=O)Nc4cccc5c4CN(C4CCC(=O)NC4=O)C5=O)cc3OC)nc2N1C1CCCC1 (stereo partly shown) [UB-180538] | –
18 | – | – | CC[C@@H]1c2nncn2-c2cnc(Nc3ccc(C(=O)NCCOCCOCCOCCOCC(=O)Nc4cccc5c4CN(C4CCC(=O)NC4=O)C5=O)cc3OC)nc2N1C1CCCC1 (stereo partly shown) [UB-180561] | EC50 [1]: > 1000 nM; EC50 ([2]; MV4;11 cells): > 1000 nM

Row | EC50 ([1]; Homo sapiens) | EC50 [2, 4] | SMILES | other results
19 | – | < 10 nM | CC[C@@H]1C(=O)N(C)c2cnc(Nc3ccc(C(=O)NC4CCN(CCOCCNCC(=O)Nc5cccc6c5CN(C5CCC(=O)NC5=O)C6=O)CC4)cc3OC)nc2N1Cc1cnc(C)s1 (stereo partly shown) [UB-180745] | DC50 (BRD4; 6 h, read-out: BRD4 DC50 (nM) (6 h)): < 10 nM; DC50 (BRD4; [5]): < 10 nM; DC50 (PLK1; 6 h, read-out: PLK1 DC50 (nM) (6 h)): > 1000 nM; DC50 (PLK1; [6]): < 10 nM
20 | > 1000 nM | 10 to 100 nM | CC[C@@H]1c2c(C#N)ncn2-c2cnc(Nc3ccc(C(=O)NCCCC(=O)N[C@H](C(=O)N4C[C@H](O)C[C@H]4C(=O)NCc4ccc(-c5scnc5C)cc4)C(C)(C)C)cc3OC)nc2N1C1CCCC1 [UB-180543] | –
21 | > 1000 nM | > 1000 nM | CC[C@@H]1c2c(C#N)ncn2-c2cnc(Nc3ccc(C(=O)NCCOCC(=O)Nc4cccc5c4CN(C4CCC(=O)NC4=O)C5=O)cc3OC)nc2N1C1CCCC1 (stereo partly shown) [UB-180518] | –
22 | > 1000 nM | > 1000 nM | CC[C@@H]1c2nncn2-c2cnc(Nc3ccc(C(=O)NCCOCCOCCOCCOCCC(=O)Nc4cccc5c4CN(C4CCC(=O)NC4=O)C5=O)cc3OC)nc2N1C1CCCC1 (stereo partly shown) [UB-180562] | –
23 | > 1000 nM | 100 to 1000 nM | CC[C@@H]1c2c(C#N)ncn2-c2cnc(Nc3ccc(C(=O)NCCOCCOCCOCCOCC(=O)Nc4cccc5c4CN(C4CCC(=O)NC4=O)C5=O)cc3OC)nc2N1C1CCCC1 (stereo partly shown) [UB-180560] | –
24 | > 1000 nM | > 1000 nM | CC[C@@H]1c2c(C#N)ncn2-c2cnc(Nc3ccc(C(=O)NCCOCCOCCOCCC(=O)Nc4cccc5c4CN(C4CCC(=O)NC4=O)C5=O)cc3OC)nc2N1C1CCCC1 (stereo partly shown) [UB-180548] | –
25 | > 1000 nM | 10 to 100 nM | CC[C@@H]1c2nncn2-c2cnc(Nc3ccc(C(=O)NCCCCOCC(=O)N[C@H](C(=O)N4C[C@H](O)C[C@H]4C(=O)NCc4ccc(-c5scnc5C)cc4)C(C)(C)C)cc3OC)nc2N1C1CCCC1 [UB-180555] | –
26 | > 1000 nM | 10 to 100 nM | CC[C@@H]1c2nncn2-c2cnc(Nc3ccc(C(=O)NCCCCOCC(=O)Nc4cccc5c4CN(C4CCC(=O)NC4=O)C5=O)cc3OC)nc2N1C1CCCC1 (stereo partly shown) [UB-180524] | –
27 | > 1000 nM | 100 to 1000 nM | CC[C@@H]1c2nncn2-c2cnc(Nc3ccc(C(=O)NCCCOCC(=O)N[C@H](C(=O)N4C[C@H](O)C[C@H]4C(=O)NCc4ccc(-c5scnc5C)cc4)C(C)(C)C)cc3OC)nc2N1C1CCCC1 [UB-180541] | –
28 | > 1000 nM | > 1000 nM | CC[C@@H]1c2nncn2-c2cnc(Nc3ccc(C(=O)NCCOCCOCCOCC(=O)Nc4cccc5c4CN(C4CCC(=O)NC4=O)C5=O)cc3OC)nc2N1C1CCCC1 (stereo partly shown) [UB-180546] | –
29 | > 1000 nM | > 1000 nM | CC[C@@H]1c2c(C#N)ncn2-c2cnc(Nc3ccc(C(=O)NCCOCCOCCOCCOCCC(=O)Nc4cccc5c4CN(C4CCC(=O)NC4=O)C5=O)cc3OC)nc2N1C1CCCC1 (stereo partly shown) [UB-180551] | –
30 | > 1000 nM | > 1000 nM | CC[C@@H]1c2nncn2-c2cnc(Nc3ccc(C(=O)NCCCOCC(=O)Nc4cccc5c4CN(C4CCC(=O)NC4=O)C5=O)cc3OC)nc2N1C1CCCC1 (stereo partly shown) [UB-180510] | –
31 | > 1000 nM | 10 to 100 nM | CC[C@@H]1c2c(C#N)ncn2-c2cnc(Nc3ccc(C(=O)NCCOCCOCCOCC(=O)N[C@H](C(=O)N4C[C@H](O)C[C@H]4C(=O)NCc4ccc(-c5scnc5C)cc4)C(C)(C)C)cc3OC)nc2N1C1CCCC1 [UB-180519] | –
32 | > 1000 nM | 100 to 1000 nM | CC[C@@H]1c2c(C#N)ncn2-c2cnc(Nc3ccc(C(=O)NCCCOCC(=O)N[C@H](C(=O)N4C[C@H](O)C[C@H]4C(=O)NCc4ccc(-c5scnc5C)cc4)C(C)(C)C)cc3OC)nc2N1C1CCCC1 [UB-180542] | –
33 | > 1000 nM | 100 to 1000 nM | CC[C@@H]1c2c(C#N)ncn2-c2cnc(Nc3ccc(C(=O)NCCOCCOCC(=O)Nc4cccc5c4CN(C4CCC(=O)NC4=O)C5=O)cc3OC)nc2N1C1CCCC1 (stereo partly shown) [UB-180557] | –
34 | > 1000 nM | 100 to 1000 nM | CC[C@@H]1c2c(C#N)ncn2-c2cnc(Nc3ccc(C(=O)NCCOCCOCC(=O)N[C@H](C(=O)N4C[C@H](O)C[C@H]4C(=O)NCc4ccc(-c5scnc5C)cc4)C(C)(C)C)cc3OC)nc2N1C1CCCC1 [UB-180563] | –
35 | – | 100 to 1000 nM | CC[C@@H]1C(=O)N(C)c2cnc(Nc3ccc(C(=O)NCc4cn(CCCN(CCC(=O)Nc5cccc6c5CN(C5CCC(=O)NC5=O)C6=O)C(=O)OCc5ccc(NC(=O)[C@H](CCCNC(N)=O)NC(=O)[C@@H](NC(=O)CCCCCN6C(=O)C=CC6=O)C(C)C)cc5)nn4)cc3OC)nc2N1C1CCCC1 (stereo partly shown) [UB-180717] | DC50 (BRD4; [5]): 10 to 100 nM; DC50 (PLK1; [6]): 10 to 100 nM
